Laboratory results as given in US8198317B2, “Methylenedioxy phenolic compounds and their use to treat disease” (The Ohio State University Research Foundation, priority 2008, dated 2012).

Tests used:
[1] = tested on: Watanabe Heritable Hyperlipidemic Rabbits (WHHL); experiment: Morphometric analysis of atherosclerotic burden in WHHL rabbits; type: in vivo, rabbit; details: end of 12 weeks, H&E morphometry
Experimental: Segments of descending thoracic aorta were embedded in Optimal Cutting Temperature compound (Tissue-Tek, Sakura Finetek USA Inc, Torrance, Calif.) and frozen on dry ice. En face sections were then prepared. To analyze atherosclerotic burden, 8 sections (4 μm thick) were collected at intervals of 20 μm. After H&E staining, each section was digitized with a digital camera and analyzed using a microscope (Zeiss Axioskop with Spot I digital camera, Jena, Germany) with National Institutes of Health (NIH) Image software version 1.61. Results were expressed as mm^2. Morphometric assessment of plaque burden in the thoracic aorta at the end of 12 weeks corroborated the anti-atherosclerotic effects of INV-75 by MRI on the abdominal aorta. The summary of atherosclerotic burden in abdominal aorta of control and INV-75 groups of WHHL rabbits are presented. n=5/group. *, p<0.05 vs control animals, n=4, using un-paired t test. Approximately 60% reduction in atherosclerosis burden in WHHL rabbits compared to control group was observed (FIG. 9).

[2] = tested on: thoracic aorta of WHHL rabbits; experiment: Organ chamber experiments on thoracic aortic rings of WHHL rabbits; type: in vivo, rabbit
Experimental: Rabbits were euthanized by injection of lethal doses of pentobarbital. The ascending aortas was removed and 2 mm thoracic aortic rings were suspended in individual organ chambers filled with physiological salt solution buffer (sodium chloride, 130 mEq/L; potassium chloride, 4.7 mEq/L; calcium dichloride, 1.6 mEq/L; magnesium sulfate, 1.17 mEq/L; potassium diphosphate, 1.18 mEq/L; sodium bicarbonate, 14.9 mEq/L; EDTA, 0.026 mEq/L; and glucose, 99.1 mg/dL [5.5 mmol/L]; pH, 7.4), aerated continuously with 5% carbon dioxide in oxygen at 37° C. Vessels were allowed to equilibrate for at least 1 hour at a resting tension of 30 mN before being subjected to graded doses of agonists as described previously. The vasoconstrictor agonists included phenylephrine (PE), endothelin-1 (ET-1), or angiotensin II. Responses were expressed as a percentage of the peak response to 120 mEq/L of potassium chloride. The vessels subjected to PE were washed thoroughly and allowed to equilibrate for 1 hour before beginning experiments with acetylcholine, sodium nitroprusside (SNP) or insulin. […] Results were expressed as a percentage of pre-contraction by PE (0.1 μM). The rings exposed to acetylcholine were thoroughly washed and allowed to equilibrate for 1 hour. […] Results were expressed as a percentage of pre-contraction by PE (0.1 μM). INV-75 decreased aortic contraction by angiotensin II but had no effect on phenylephrine (FIG. 15 and FIG. 16).

[3] = tested on: Watanabe Heritable Hyperlipidemic Rabbits (WHHL); experiment: Lucigenin chemiluminescence for NADPH derived superoxide in WHHL aortic lysates; type: in vivo, rabbit; details: vs control
Experimental: Oxidative stress has been implicated in atherosclerosis. Superoxide (O2^•−) derived from NADPH could potentially trigger a free radical chain reaction which could potentially catalyze atherosclerotic plaque formation. Rabbit aorta was homogenized in PBS, and the protein concentration was adjusted to 5 μg/μl. 20 ul/well of cell lysates were plated on a 96-well microplate in Kreps-Hepes Buffer (pH=7.4; initially gassed with 95% O2, and 5% CO2). The baseline O2^•− production was measured with 5 μM Lucigenin. NADPH induced O2^•− production was measured by adding NADPH (100 μM). Measurements were performed with Berthold Luminometer LB 960. Luminometer settings were 0.1 s measurement and 30s kinetics.

[4] = tested on: Watanabe Heritable Hyperlipidemic Rabbits (WHHL); experiment: Western blot of VCAM-1 and ICAM-1 in WHHL rabbit aorta; type: in vivo
Experimental: Samples were homogenized and solubilized in radioimmunoprecipitation assay buffer (50 mM Tris-HCl, pH 7.4, 150 mM NaCl, 1 mM EDTA, 1 mM NaF, 1 mM Na3VO4) and 1 mM phenylmethylsulfonyl fluoride, with 0.25% sodiumdeoxycholate and 1.0% Nonidet P-40) and centrifuged at 10,000 g and 4° C. for 30 min. The supernatant was collected and subjected to Western blot analysis. In brief, 40 μg of protein was separated by SDS-polyacrylamide gel electrophoresis and subsequently transferred to nitrocellulose membrane. The membrane was then incubated with: monoclonal anti-β-actin (Sigma, St. Louis, Mo.), monoclonal anti-VCAM (R&D Systems, Minneapolis, Minn.), monoclonal anti-ICAM (R&D Systems, Minneapolis, Minn.), monoclonal anti-phospho-eNOS(pS 1177) (BD Biosciences, Billerica, Mass.), rabbit anti-eNOS (Santa Cruz Biotechnology, Santa Cruz, Calif.), rabbit anti-phospho-Akt (Thr308) (Cell Signaling Technology, Danvers, Mass.), goat anti-Akt (Santa Cruz Biotechnology, Santa Cruz, Calif.), and rabbit anti-p65 (Cell Signaling Technology, Danvers, Mass.). Finally, the membranes were incubated with a horseradish peroxidase-linked secondary antibody and visualized with an enhanced chemiluminescence kit (Amersham Biosciences Inc., Piscataway, N.J.). Band density was quantified by densitometric analysis using ImageJ.

[5] = tested on: New Zealand White rabbits; experiment: Oil Red O staining of abdominal aorta of NZW rabbits; type: in vivo, rabbit
Experimental: Animal Model: 15 male New Zealand White rabbits (Charles River, Mass.) were fed with high fat diet (HFD) (Harlan Teklad rabbit diet with 0.5% cholesterol, TD 87251). After 4 weeks of high fat diet, rabbits were randomized into three different treatment groups, normal control (n=5), lipoic acid (100 mg/kg/day) (n=5), INV 70-65 (100 mg/kg/day) (n=5). These drugs were administered to the animals via their chow by mixing the drugs with the high fat diet. A fixed amount of chow and drugs admixed in the chow were fed to all animals every day after carefully calculating food intake in each rabbit. Drugs were dissolved in 100% ethanol and sprayed onto the diet and kept under vacuum to let ethanol evaporate overnight. Two (2) weeks after drug or control admixed HFD, all rabbits underwent aortic balloon denudation surgeries followed by 12 weeks of continued administration of drug or controls admixed with HFD. FIG. 29 provides an outline of the experimental design.
Hypercholesterolemia and oxidative stress play an important role in the development of atherosclerosis. The rabbits were sacrificed and abdominal aortas were fixed in 4% PFA (paraformaldehyde). The lipid deposition in the aortic wall was then visualized by oil red staining.

Row | SMILES | reduction in atherosclerosis burden compared to control group [1] | aortic contraction by angiotensin II ([2]; in words) | effect on insulin relaxation ([2]; in words) | effect on phenylephrine response ([2]; in words) | effect on response to endothelin-1 ([2]; in words) | effect on SNP response ([2]; results not shown) | basal and stimulated superoxide production in aortic tissue lysates [3] | protein expression of ICAM-1 [4] | protein expression of VCAM-1 [4] | reduction in lipid deposition in the aortic wall compared to controls ([5]; NZW) | reduction in lipid deposition in the aortic wall compared to lipoic acid ([5]; NZW) | lipid content in the plaque area (Oil Red O) compared to the control group ([5]; NZW abdominal aorta)
1 | CC(=O)Oc1cc2c(cc1[N+](=O)[O-])OCO2 [INV-75, 3,4-methylenedioxy-6-nitrophenyl acetate] | Approximately 60% | decreased | marginal (non-significant effect | no effect | no effects | no effects | lower | markedly reduced | markedly reduced |  |  | 
2 | O=C(CCCCC1CCSS1)Oc1ccc2c(c1)OCO2 (stereo not drawn) [INV-7065, 3,4-Methylenedioxy phenyl lipoate] |  |  |  |  |  |  |  |  |  | about 80% | about 40% | reduction
